Data reported in article PMC8512147, “Multifunctional Small Molecules as Potential Anti-Alzheimer’s Disease Agents” (Molecules, 2021).

What was measured:
[1] = Radical scavenging activity, DPPH method; type: biochemical; conditions: MeOH, 30 min, r.t., mean ± SD of 3 independent experiments
From the text: Commercial ferulic acid (FA) and all the newly synthesized compounds 1a–e were studied for their radical scavenging activity, following the protocol previously reported. The activity of each compound is expressed as EC50 and is related to its interaction with the free stable radical 2,2-diphenyl-1-picrylhydrazyl (DPPH•).
For the physicochemical and biological studies, analytical grade reagents and solvents were supplied by Sigma-Aldrich (St. Louis, MO, USA), Fluka (Buchs, Switzerland) and Acros (Geel, Belgium). They were used as received without any purification. The antioxidant activity assay was performed in a quartz cell of 1 cm path length with a Perkin-Elmer Lambda 35 UV–Vis spectrophotometer equipped with a temperature programmer PTP1+1 Peltier System (T = 25.0 ± 0.1 °C).
Compounds were evaluated for their radical scavenging activity by the Blois method using DPPH (2,2-diphenyl-1-picrylhydrazyl), a stable free-radical. It absorbs in methanol solution at 517–520 nm and it is a scavenger for other radicals converting itself in the reduced form DPPHH. The assay consists of preparing solutions of increasing concentration of each compound starting from a stock solution (2–3 × 10^−4 M), adding to them 2.5 mL DPPH (0.002% in MeOH, 50–100 µM) and the necessary volume of MeOH to reach the final volume 3.5 mL for each sample. The control sample was made up of DPPH and MeOH. Solutions were protected from light at r.t. for 30 min and then absorbance was measured at 517 nm with a Perkin Elmer Lambda 35 UV–Vis spectrophotometer, using methanolic solution as the blank in the other cell. All the studied compounds have good solubility in MeOH, so their solutions could be prepared. The assay was repeated three times for all compounds and the antioxidant activity, expressed as EC50, was calculated by Equation (1). %AA = ((ADPPH − Asample)/ADPPH) × 100,(1)

[2] = Fe^3+ complexation, potentiometric / spectrophotometric titration; type: physicochemical; conditions: for log β (FemHhLl), species (101) / log β (FemHhLl), species (102): pH-potentiometric (FA), UV–Vis (1a, 1d); for pM (Fe^3+), pM = −log [M]: pH 7.4, CL/CM = 10, CM = 10^−6 M
From the text: (§1) The chelating ability of FA and of selected compounds 1a and 1d was studied by using the same experimental techniques (potentiometry, UV–Vis spectrophotometry) and experimental medium used for the titration of the ligand alone (20% w/w DMSO/water).
(§2) Alterations in the deprotonation profiles of the ligand titration curves due to the presence of the metal ions are evident in Figure 2, since the curves for the M/L systems appear well below that of FA for a > −1 (M = Fe) or a > 0 (M = Cu). This evidence supports the formation of metal complexes with the deprotonated (L^−) and mono-protonated (HL) forms of the ligand, whose stability order (Fe > Cu) follows the expected trend. Equilibrium models obtained from the fitting analysis of the potentiometric curves (M = Fe, Cu) and the UV–Vis spectral data (M = Fe, Cu) are reported in Table 2.
(§3) Both compounds 1a and 1d have similar chelating capacities towards iron and copper, which are also analogous to those of FA.
(§4) As concerns the metal chelation studies, potassium hydrogen phthalate (C8H5KO4, p.a.) was acquired from BDH, whereas dimethylsulfoxide (DMSO, dried, p.a.) and potassium chloride (KCl, p.a.) were supplied by Sigma-Aldrich. Aqueous solutions of metal ions were prepared starting from 1000 ppm standards (Titrisol, Sigma-Aldrich), to obtain solutions FeCl3 0.018 M and CuCl2 0.015 M. The metal content of solutions was evaluated by atomic absorption. Iron stock solution was prepared with an excess of acid chloride to avoid hydrolysis and its concentration in HCl was determined by the usual standard-addition method using 0.1M HCl (Titrisol). The 0.1M HCl solution, used in calibration of the glass electrode and in spectrophotometric titrations, was prepared from a Titrisol ampoule. The titrant was prepared from carbonate free commercial concentrate (Titrisol, KOH 0.1 M ampoules). The KOH solution was standardized by titration with a solution of potassium hydrogen phthalate using Gran’s method and it was rejected when the percentage of carbonate was greater than 0.5% of the total amount of base. The potentiometric studies were performed with an automated potentiometric apparatus controlled by PASAT program and containing a Crison micropH 2002 millivoltmeter, a Crison microBu 2031 burette and a Haake thermostatic bath (T = 25.0 ± 0.1 °C). The spectrophotometric titrations were carried out with a Perkin-Elmer Lambda 35 spectrophotometer.
(§5) Both glass and Ag/AgCl reference electrodes were previously conditioned in different DMSO/H2O mixtures of increasing DMSO % concentration and the response of the glass electrode was evaluated by strong acid–strong base (HCl/KOH) calibrations with the determination of the Nernst parameters by Gran’s method. […] The spectrophotometric measurements were carried out in a 250–450 nm wavelength range at pH ca. 2.5–11.8. Under the stated experimental conditions, the pKw value (14.27) was determined and subsequently used in the computations. The stepwise protonation constants of the ligands, Ki = [HiL]/[Hi-1L][H], and the overall metal complex stability constants, β (MmHhLl) = [MmHhLl]/[M]^m[H]^h[L]^l, were calculated by fitting the pH-potentiometric and spectrophotometric data with, respectively, the Hyperquad 2008 [41] and Psequad programs. The metal hydrolysis model was determined under the defined experimental conditions (I = 0.1 M KCl, 20% w/w DMSO/H2O, T = 25.0 ± 0.1 °C) and the following values of stability constants were included in the fitting of experimental data towards the equilibrium models related to the Fe^3+/L and Cu^2+/L systems: log β (FeH-2) = −6.78, log β (FeH-3) = −10.78; log β (Cu2H-2) = −9.94. The species distribution curves were obtained with the Hyss program.

[3] = Cu^2+ complexation, potentiometric / spectrophotometric titration; type: physicochemical; conditions: for log β (CumHhLl), species (1–12) / log β (CumHhLl), species (101): UV–Vis (1a, 1d); for pM (Cu^2+), pM = −log [M]: pH 7.4, CL/CM = 10, CM = 10^−6 M
From the text: as §1, §2, §3, §4, §5

[4] = T = 25.0 ± 0.1 °C, I = 0.1 M KCl, 20% w/w DMSO/water
[5] = T = 25.0 ± 0.1 °C, I = 0.1 M KCl, 20% w/w DMSO/water, pH-potentiometric (FA)

Row | Structure (SMILES) | EC50 [1] [µM] | log β (FemHhLl), species (101) [2, 4] | log β (FemHhLl), species (102) [2, 4] | pM (Fe^3+), pM = −log [M] [2] | FeL in the Fe^3+/L system ([2]; pH ca. 2, species distribution) [%] | log β (CumHhLl), species (1–21) ([3]; T = 25.0 ± 0.1 °C, I = 0.1 M KCl, 20% w/w DMSO/water, UV–Vis spectrophotometric data) | log β (CumHhLl), species (1–12) [3, 5] | log β (CumHhLl), species (101) [3, 5] | pM (Cu^2+), pM = −log [M] [3] | melting point [°C] | log β (FemHhLl), species (1–22) [2, 4] | log β (CumHhLl), species (102) ([3]; T = 25.0 ± 0.1 °C, I = 0.1 M KCl, 20% w/w DMSO/water, pH-potentiometric (FA), UV–Vis (1d))
1 | COc1cc(/C=C/C(=O)NOCc2ccccc2OC)ccc1O [Compound 1a, (E)-3-(4-hydroxy-3-methoxyphenyl)-N-((2-methoxybenzyl)oxy)acrylamide] | 34 ± 1 | 16.49(3) | 23.69(4) | 17.6 | 100 | −13.16(7) | 1.12(5) | 6.27(7) | 6.3 | 58 | – | –
2 | COc1cc(/C=C/C(=O)NOCc2cccc(Cl)c2)ccc1O [Compound 1d, (E)-N-((3-chlorobenzyl)oxy)-3-(4-hydroxy-3-methoxyphenyl)acrylamide] | 33 ± 1 | 15.42(7) | 25.43(5) | 18.2 | – | – | 2.20(8) | 7.49(7) | 7.0 | 47 to 48 | 8.50(5) | 12.14(7)
